Reference: PubChem BioAssay (NCI)
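Exposure lasted 48 hours, with cells grown in 96-well plates and compounds tested at five concentrations. GI50 is the concentration that inhibits growth by half. The concentration for full growth arrest is given as TGI.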

How the values were obtained:
Assay in all cases: DTP human tumour cell line panel, 48 h
[1] = tested on: KM12 colon
[2] = tested on: DU-145 prostate
[3] = tested on: EKVX NSCLC
[4] = tested on: K-562 leukemia
[5] = tested on: NCI-H23 lung
[6] = tested on: SNB-19 CNS
[7] = tested on: UO-31 renal
[8] = tested on: HL-60(TB) leukemia
[9] = tested on: SW-620 colon
[10] = tested on: OVCAR-8 ovarian

CCOC(=O)C1=C(C)N(Cc2ccc(Cl)cc2Cl)[C@]2(C#N)C(O)=C(Cl)C(Cl)=C(O)[C@]12C#N
GI50 [1]: > 100 µM | TGI [1]: > 100 µM | GI50 [2]: 16.7 µM | TGI [2]: 38.7 µM | GI50 [3]: > 100 µM | TGI [3]: > 100 µM | GI50 [4]: 28.1 µM | TGI [4]: 57.5 µM | GI50 [5]: 16.3 µM | TGI [5]: 80.4 µM | GI50 [6]: 92.8 µM | TGI [6]: > 100 µM | GI50 [7]: 92 µM | TGI [7]: > 100 µM | GI50 [8]: 31.9 µM | TGI [8]: 76.9 µM | GI50 [9]: 31.8 µM | TGI [9]: 82.9 µM | GI50 [10]: 73.4 µM | TGI [10]: > 100 µM

CCOC(=O)c1cc2cc(OCc3ccccc3)ccc2[nH]1
GI50 [1]: > 100 µM | TGI [1]: > 100 µM | GI50 [2]: > 100 µM | TGI [2]: > 100 µM | GI50 [3]: > 100 µM | TGI [3]: > 100 µM | GI50 [5]: > 100 µM | TGI [5]: > 100 µM | GI50 [6]: > 100 µM | TGI [6]: > 100 µM | GI50 [7]: > 100 µM | TGI [7]: > 100 µM | GI50 [8]: 12.2 µM | TGI [8]: 66.7 µM | GI50 [9]: > 100 µM | TGI [9]: > 100 µM | GI50 [10]: > 100 µM | TGI [10]: > 100 µM

CCc1ccc(C2=NN(c3ccc(S(C)(=O)=O)cc3)C(=O)CC2)cc1
GI50 [1]: 0.817 µM | TGI [1]: > 96.1 µM | GI50 [2]: 2.67 µM | TGI [2]: > 26.8 µM | GI50 [3]: 4.15 µM | TGI [3]: 98.4 µM | GI50 [4]: 0.488 µM | TGI [4]: > 100 µM | GI50 [5]: 1.85 µM | TGI [5]: > 24.3 µM | GI50 [6]: 8.82 µM | TGI [6]: > 100 µM | GI50 [7]: 4.89 µM | TGI [7]: > 100 µM | GI50 [8]: 1.2 µM | TGI [8]: 6.35 µM | GI50 [9]: 0.56 µM | TGI [9]: > 100 µM | GI50 [10]: 2.87 µM | TGI [10]: > 81.8 µM

NCC(Cc1ccccc1)P(=O)(O)O (stereo not drawn)
TGI [1]: > 100 µM | TGI [2]: > 100 µM | TGI [3]: > 100 µM | TGI [4]: > 100 µM | TGI [5]: > 100 µM | TGI [6]: > 100 µM | TGI [7]: > 100 µM | TGI [8]: > 100 µM | TGI [9]: > 100 µM | TGI [10]: > 100 µM

CCN(CC)C(=O)CCCCCn1c2ccccc2c2c3c(c4c5ccccc5[nH]c4c21)C(=O)N(O)C3=O
GI50 [1]: 3.31 µM | TGI [1]: 14.7 µM | GI50 [2]: 6.5 µM | TGI [2]: > 100 µM | GI50 [3]: 10.9 µM | TGI [3]: 58.4 µM | GI50 [4]: 4.18 µM | TGI [4]: > 100 µM | GI50 [5]: 3.33 µM | TGI [5]: 47.3 µM | GI50 [6]: 4.7 µM | TGI [6]: > 100 µM | GI50 [7]: 1.72 µM | TGI [7]: 4.22 µM | GI50 [8]: 2.8 µM | TGI [8]: 7.63 µM | GI50 [9]: 4.29 µM | TGI [9]: > 100 µM | GI50 [10]: 4.1 µM | TGI [10]: 28.3 µM

CCN(CCNc1ccc(C)c2sc3cc(Cl)ccc3c(=O)c12)CC(C)(C)O
GI50 [1]: 2.32 µM | TGI [1]: 5.54 µM | GI50 [2]: 13.1 µM | TGI [2]: 40.6 µM | GI50 [3]: 3.41 µM | TGI [3]: 21.6 µM | GI50 [4]: 3.19 µM | TGI [4]: 11.7 µM | GI50 [5]: 6.88 µM | TGI [5]: 24.1 µM | GI50 [6]: 10.1 µM | TGI [6]: 25.8 µM | GI50 [7]: 1.3 µM | TGI [7]: 3.53 µM | GI50 [8]: 12.2 µM | TGI [8]: 44.7 µM | GI50 [9]: 3.64 µM | TGI [9]: 13.4 µM | GI50 [10]: 22.5 µM | TGI [10]: > 100 µM

CCC1=C(c2ccc(OC)cc2)CC[C@]2(CCNC2=O)[C@@H]1C
TGI [1]: > 91.7 µM | TGI [2]: > 100 µM | TGI [3]: > 86.7 µM | TGI [4]: 48.7 µM | TGI [5]: > 100 µM | TGI [6]: > 100 µM | TGI [7]: 66.3 µM | TGI [8]: 69.2 µM | TGI [9]: > 100 µM | TGI [10]: > 100 µM
